Converted amounts (≈) assume the structure as drawn. Like-named read-outs stand apart in the source and are kept apart here.
Legend:
[1] = system: S. aureus ATCC 29213; assay: MIC test according to CLSI M7-A9, S. aureus ATCC 29213; type: cell-based; conditions: Staphylococcus aureus, read-out: S. aureus ATCC 29213 MIC at 24 h
Experimental: (§1) MIC Test (S. aureus ATCC 29213, S. aureus ATCC 43300 and S. aureus Newman)
(§2) Susceptibility testing of S. aureus ATCC 29213, ATCC 43300 and Newman was performed according to Clinical Laboratory Standard Institute (CLSI) guidelines M7-A9. Test articles were stored at room temperature prior to use, then dissolved in filtered sterile DMSO. Stock DMSO solutions were diluted further in cation-adjusted Mueller Hinton broth (CAMHB) to provide appropriate test concentrations. Cultures of S. aureus (ATCC 29213, ATCC 43300 or Newman) were added in accordance with CLSI guidelines and plates incubated at 37° C. in air for 24 h. Endpoints were determined visually (and by spectrophotometer at 600 nm) and the minimum inhibitory concentration (MIC) defined as the lowest concentration of test articles resulting in complete inhibition of visible bacterial growth. Results are detailed in Table 2 (S. aureus ATCC 29213 and ATCC 43300) and Table 3 (S. aureus ATCC 29213, ATCC 43300 and Newman).

[2] = system: S. aureus ATCC 43300; assay: MIC test according to CLSI M7-A9, S. aureus ATCC 43300; type: cell-based; conditions: Staphylococcus aureus, read-out: S. aureus ATCC 43300 MIC at 24 h
Experimental: as §1, §2

[3] = ATCC29213, CLSI M7-A9, CAMHB, 24 h (Table 2)
[4] = ATCC43300, CLSI M7-A9, CAMHB, 24 h (Table 2)

Which MIC [1, 3] does the source give for CN1CCN(c2nc(-c3ccc(C(C)(C)C)cc3)nc3cc(=O)[nH]n23)CC1 [Example 18, 2-(4-tert-butylphenyl)-4-(4-methylpiperazin-1-yl)-6H,7H-pyrazolo[1,5-a][1,3,5]triazin-7-one] here?
The MIC was 64 µg/mL (≈ 175 µM).

What about the MIC [2, 4] of the same compound?
Its MIC is 64 µg/mL (≈ 175 µM).

With CC(C)(C)c1ccc(-c2nc(NC3CCC(NCc4ccccc4)CC3)n3[nH]c(=O)cc3n2)cc1 (centres unmarked) [Example 56, 4-{[4-(benzylamino)cyclohexyl]amino}-2-(4-tert-butylphenyl)-6H,7H-pyrazolo[1,5-a][1,3,5]triazin-7-one] as the compound, how does the MIC [1, 3] read?
Its MIC is 16 µg/mL (≈ 34 µM).

What about the MIC [2, 4] of the same compound?
The MIC was 8 µg/mL (≈ 17 µM).

Which results are given for Cc1cc(OCCC(C)Nc2nc(-c3ccc(C(C)(C)C)cc3)nc3cc(=O)[nH]n23)ccc1Cl (centres unmarked) [Example 65, 2-(4-tert-butylphenyl)-4-{[4-(4-chloro-3-methylphenoxy)butan-2-yl]amino}-6H,7H-pyrazolo[1,5-a][1,3,5]triazin-7-one]?
MIC [1, 3]: 4 µg/mL (≈ 8.33 µM); MIC [2, 4]: 4 µg/mL (≈ 8.33 µM)

With Cc1cc(N2CCC(Nc3nc(-c4ccc(C(C)(C)C)cc4)nc4cc(=O)[nH]n34)CC2)ccc1Cl [Example 62, 2-(4-tert-butylphenyl)-4-{[1-(4-chloro-3-methylphenyl)piperidin-4-yl]amino}-6H,7H-pyrazolo[1,5-a][1,3,5]triazin-7-one] as the compound, how does the MIC [1, 3] read?
The MIC was 4 µg/mL (≈ 8.15 µM).

And the MIC [2, 4]?
Its MIC is 16 µg/mL (≈ 32.6 µM).

Which results are given for CC(C)(C)c1ccc(-c2nc(NC3CCN(Cc4ccccc4)CC3)n3[nH]c(=O)cc3n2)cc1 [Example 35, 4-[(1-benzylpiperidin-4-yl)amino]-2-(4-tert-butylphenyl)-6H,7H-pyrazolo[1,5-a][1,3,5]triazin-7-one]?
MIC [1, 3]: 8 µg/mL (≈ 17.5 µM); MIC [2, 4]: 8 µg/mL (≈ 17.5 µM)

For Cc1ccc(-c2nc(NCCCOc3ccc(Cl)c(C)c3)n3[nH]c(=O)cc3n2)cc1 [Example 67, 4-{[3-(4-chloro-3-methylphenoxy)propyl]amino}-2-(4-methylphenyl)-6H,7H-pyrazolo[1,5-a][1,3,5]triazin-7-one], which MIC [1, 3] is on record?
Its MIC is greater than 64 µg/mL.

What about the MIC [2, 4] of the same compound?
The MIC was greater than 64 µg/mL.

What does the source list for Cc1cc(NC2CCN(c3nc(-c4ccc(C(C)(C)C)cc4)nc4cc(=O)[nH]n34)CC2)ccc1Cl [Example 54, 2-(4-tert-butylphenyl)-4-{4-[(4-chloro-3-methylphenyl)amino]piperidin-1-yl}-6H,7H-pyrazolo[1,5-a][1,3,5]triazin-7-one]?
MIC [1, 3]: 4 µg/mL (≈ 8.15 µM); MIC [2, 4]: 4 µg/mL (≈ 8.15 µM)

Which results are given for CC(C)(C)c1ccc(-c2nc(NCCCNc3ccccc3)n3[nH]c(=O)cc3n2)cc1 [Example 43, 2-(4-tert-butylphenyl)-4-{[3-(phenylamino)propyl]amino}-6H,7H-pyrazolo[1,5-a][1,3,5]triazin-7-one]?
MIC [1, 3]: 8 µg/mL (≈ 19.2 µM); MIC [2, 4]: 8 µg/mL (≈ 19.2 µM)

CC(C)(C)c1ccc(-c2nc(N3CCC(OCc4ccccc4)CC3)n3[nH]c(=O)cc3n2)cc1 [Example 21, 4-[4-(benzyloxy)piperidin-1-yl]-2-(4-tert-butylphenyl)-6H,7H-pyrazolo[1,5-a][1,3,5]triazin-7-one] was tested. Which MIC [1, 3] did it give?
The MIC was 32 µg/mL (≈ 69.9 µM).

And the MIC [2, 4]?
The MIC was greater than 128 µg/mL.

What does the source list for CC(C)(C)c1ccc(-c2nc(NCCCNC3Cc4ccccc4C3)n3[nH]c(=O)cc3n2)cc1 [Example 42, 2-(4-tert-butylphenyl)-4-({3-[(2,3-dihydro-1H-inden-2-yl)amino]propyl}amino)-6H,7H-pyrazolo[1,5-a][1,3,5]triazin-7-one]?
MIC [1, 3]: 8 µg/mL (≈ 17.5 µM); MIC [2, 4]: 8 µg/mL (≈ 17.5 µM)

Which results are given for Cc1cc(OCC(O)CNc2nc(-c3ccc(C(C)(C)C)cc3)nc3cc(=O)[nH]n23)ccc1Cl (centres unmarked) [Example 60, 2-(4-tert-butylphenyl)-4-{[3-(4-chloro-3-methylphenoxy)-2-hydroxypropyl]amino}-6H,7H-pyrazolo[1,5-a][1,3,5]triazin-7-one]?
MIC [1, 3]: 4 µg/mL (≈ 8.3 µM); MIC [2, 4]: 8 µg/mL (≈ 16.6 µM)

CC(C)(C)c1ccc(-c2nc(NCCCN3CCC(O)CC3)n3[nH]c(=O)cc3n2)cc1 [Example 40, 2-(4-tert-butylphenyl)-4-{[3-(4-hydroxypiperidin-1-yl)propyl]amino}-6H,7H-pyrazolo[1,5-a][1,3,5]triazin-7-one] was tested. Which MIC [1, 3] did it give?
The MIC was 128 µg/mL (≈ 301 µM).

And the MIC [2, 4]?
The MIC was 128 µg/mL (≈ 301 µM).

What does the source list for Cc1ncc(CN2CCC(Nc3nc(-c4ccc(C(C)(C)C)cc4)nc4cc(=O)[nH]n34)CC2)[nH]1 [Example 55, 2-(4-tert-butylphenyl)-4-({1-[(2-methyl-1H-imidazol-5-yl)methyl]piperidin-4-yl}amino)-6H,7H-pyrazolo[1,5-a][1,3,5]triazin-7-one]?
MIC [1, 3]: 32 µg/mL (≈ 69.5 µM); MIC [2, 4]: 32 µg/mL (≈ 69.5 µM)

What does the source list for CC(C)(C)c1ccc(-c2nc(NC3CCN(C(=O)c4ccccc4)CC3)n3[nH]c(=O)cc3n2)cc1 [Example 63, 4-[(1-benzoylpiperidin-4-yl)amino]-2-(4-tert-butylphenyl)-6H,7H-pyrazolo[1,5-a][1,3,5]triazin-7-one]?
MIC [1, 3]: 32 µg/mL (≈ 68 µM); MIC [2, 4]: 128 µg/mL (≈ 272 µM)

CC(C)(C)c1ccc(-c2nc(NCCCn3ccnc3)n3[nH]c(=O)cc3n2)cc1 [Example 24, 2-(4-tert-butylphenyl)-4-{[3-(1H-imidazol-1-yl)propyl]amino}-6H,7H-pyrazolo[1,5-a][1,3,5]triazin-7-one] was tested. Which MIC ([1]; ATCC29213, 24 h) did it give?
Its MIC is 64 µg/mL (≈ 163 µM).

What about the MIC ([2]; ATCC43300, 24 h) of the same compound?
The MIC was 64 µg/mL (≈ 163 µM).

How did the MIC [1, 3] turn out when CC(C)(C)c1ccc(-c2nc(NCCCN3Cc4ccccc4C3)n3[nH]c(=O)cc3n2)cc1 [Example 44, 2-(4-tert-butylphenyl)-4-{[3-(2,3-dihydro-1H-isoindol-2-yl)propyl]amino}-6H,7H-pyrazolo[1,5-a][1,3,5]triazin-7-one] was run?
The MIC was 64 µg/mL (≈ 145 µM).

What about the MIC [2, 4] of the same compound?
The MIC was greater than 128 µg/mL.

Cc1cc(NCC2CN(c3nc(-c4ccc(C(C)(C)C)cc4)nc4cc(=O)[nH]n34)C2)ccc1Cl [Example 57, 2-(4-tert-butylphenyl)-4-(3-{[(4-chloro-3-methylphenyl)amino]methyl}azetidin-1-yl)-6H,7H-pyrazolo[1,5-a][1,3,5]triazin-7-one] was tested. Which MIC [1, 3] did it give?
Its MIC is 4 µg/mL (≈ 8.39 µM).

What about the MIC [2, 4] of the same compound?
The MIC was 8 µg/mL (≈ 16.8 µM).

CN(C)c1nc(-c2ccc(C(C)(C)C)cc2)nc2cc(=O)[nH]n12 [Example 32, 2-(4-tert-butylphenyl)-4-(dimethylamino)-6H,7H-pyrazolo[1,5-a][1,3,5]triazin-7-one] was tested. Which MIC [1, 3] did it give?
Its MIC is greater than 32 µg/mL.

What about the MIC [2, 4] of the same compound?
Its MIC is 32 µg/mL (≈ 103 µM).

Which results are given for CC(C)(C)c1ccc(-c2nc(NCCCN3CCOCC3)n3[nH]c(=O)cc3n2)cc1 [Example 41, 2-(4-tert-butylphenyl)-4-{[3-(morpholin-4-yl)propyl]amino}-6H,7H-pyrazolo[1,5-a][1,3,5]triazin-7-one]?
MIC [1, 3]: 128 µg/mL (≈ 312 µM); MIC [2, 4]: 128 µg/mL (≈ 312 µM)

Which results are given for CC(C)(C)c1ccc(-c2nc(NCCCOc3ccccc3)n3[nH]c(=O)cc3n2)cc1 [Example 33, 2-(4-tert-butylphenyl)-4-[(3-phenoxypropyl)amino]-6H,7H-pyrazolo[1,5-a][1,3,5]triazin-7-one]?
MIC [1, 3]: 8 µg/mL (≈ 19.2 µM); MIC [2, 4]: 8 µg/mL (≈ 19.2 µM)

With CC(C)(C)c1ccc(-c2nc(NCCCNC3CCCCC3)n3[nH]c(=O)cc3n2)cc1 [Example 39, 2-(4-tert-butylphenyl)-4-{[3-(cyclohexylamino)propyl]amino}-6H,7H-pyrazolo[1,5-a][1,3,5]triazin-7-one] as the compound, how does the MIC [1, 3] read?
The MIC was 32 µg/mL (≈ 75.7 µM).

And the MIC [2, 4]?
The MIC was 32 µg/mL (≈ 75.7 µM).

What does the source list for Cc1ccc(-c2nc(NC3CCN(Cc4ccccc4)CC3)n3[nH]c(=O)cc3n2)cc1 [Example 69, 4-[(1-benzylpiperidin-4-yl)amino]-2-(4-methylphenyl)-6H,7H-pyrazolo[1,5-a][1,3,5]triazin-7-one]?
MIC [1, 3]: 32 µg/mL (≈ 77.2 µM); MIC [2, 4]: > 32 µg/mL

For CCCCN(C)c1nc(-c2ccc(C(C)(C)C)cc2)nc2cc(=O)[nH]n12 [Example 34, 4-[butyl(methyl)amino]-2-(4-tert-butylphenyl)-6H,7H-pyrazolo[1,5-a][1,3,5]triazin-7-one], which MIC [1, 3] is on record?
Its MIC is 16 µg/mL (≈ 45.3 µM).

What about the MIC [2, 4] of the same compound?
Its MIC is 16 µg/mL (≈ 45.3 µM).

How did the MIC [1, 3] turn out when CC(C)(C)c1ccc(-c2nc(NCC(O)CNC3CCCCC3)n3[nH]c(=O)cc3n2)cc1 (centres unmarked) [Example 61, 2-(4-tert-butylphenyl)-4-{[3-(cyclohexylamino)-2-hydroxypropyl]amino}-6H,7H-pyrazolo[1,5-a][1,3,5]triazin-7-one] was run?
The MIC was 32 µg/mL (≈ 73 µM).

What about the MIC [2, 4] of the same compound?
Its MIC is 32 µg/mL (≈ 73 µM).

How did the MIC [1, 3] turn out when Cc1ccc(S(=O)(=O)CCCNc2nc(-c3ccc(C(C)(C)C)cc3)nc3cc(=O)[nH]n23)cc1C [Example 58, 2-(4-tert-butylphenyl)-4-{[3-(3,4-dimethylbenzenesulfonyl)propyl]amino}-6H,7H-pyrazolo[1,5-a][1,3,5]triazin-7-one] was run?
The MIC was 64 µg/mL (≈ 130 µM).

And the MIC [2, 4]?
The MIC was 64 µg/mL (≈ 130 µM).

For Cc1cc(OCCCNc2nc(-c3ccc(C(C)(C)C)cc3)nc3c(F)c(=O)[nH]n23)ccc1Cl [Example 71, 2-(4-tert-butylphenyl)-4-{[3-(4-chloro-3-methylphenoxy)propyl]amino}-8-fluoro-6H,7H-pyrazolo[1,5-a][1,3,5]triazin-7-one], which MIC [1, 3] is on record?
Its MIC is 8 µg/mL (≈ 16.5 µM).

What about the MIC [2, 4] of the same compound?
The MIC was 8 µg/mL (≈ 16.5 µM).

With CC(C)(C)c1ccc(-c2nc(NCCCc3ccccc3)n3[nH]c(=O)cc3n2)cc1 [Example 23, 2-(4-tert-butylphenyl)-4-[(3-phenylpropyl)amino]-6H,7H-pyrazolo[1,5-a][1,3,5]triazin-7-one] as the compound, how does the MIC [1, 3] read?
Its MIC is 4 µg/mL (≈ 9.96 µM).

And the MIC [2, 4]?
The MIC was 4 µg/mL (≈ 9.96 µM).

How did the MIC [1, 3] turn out when Cc1cc(NCC(F)CNc2nc(-c3ccc(C(C)(C)C)cc3)nc3cc(=O)[nH]n23)ccc1Cl (centres unmarked) [Example 66, 2-(4-tert-butylphenyl)-4-({3-[(4-chloro-3-methylphenyl)amino]-2-fluoropropyl}amino)-6H,7H-pyrazolo[1,5-a][1,3,5]triazin-7-one] was run?
The MIC was 4 µg/mL (≈ 8.28 µM).

What about the MIC [2, 4] of the same compound?
The MIC was 2 µg/mL (≈ 4.14 µM).

Source: US20180162862A1 (President and Fellows of Harvard College, priority 2015, published 2018)
